One experiment deals with L. monocytogenes 272. In words: Chicken soup trial at 8° C. Conditions: chicken soup at 8° C. It counts as cell-based, Listeria monocytogenes. An excerpt:
(§1) A local supermarket brand of cream of chicken soup was used as a model food system. 600 g packs were purchased from the local supermarket. This was a ‘fresh home-made type’ of soup that was stored in the chill cabinet, with a short shelf life. It was chosen because it is a rich, nutritious food system containing a range of food components including meat, dairy and vegetable.
(§2) Ingredients were labelled as: chicken stock (water, duck fat, chicken, salt, flavourings, yeast extracts, pork gelatine, glucose syrup, vegetable concentrate, milk protein, sugar, malto-dextrin, vegetable oil, citric acid, lactose, chicken fat), ilk, chicken (9%), cream (8%), onion, potato, vegetable oil, modified maize starch, wheat flour, lemon juice, salt, white pepper. pH 5.912. Protein: 3.3%; carbohydrate: 4.7%; fat: 7.2%; fibre: 0.2%; sodium: 0.1%
(§3) For the test the soup was mixed 2:1 in water (to facilitate sampling and mixing) and sterilised by autoclaving at 121° C. for 15 minutes. For each experiment the pH of the soup was recorded; this was between pH 5.79-5.88.
For TCS010412/8 (which was incubated at 8° C.), APP batch number APP20010213 (concentration 169 mg APP/ml) was used to prepare tests containing 0, 2000 or 4000 ppm APP. 5 g of filter-sterilised APP stock solution was added to 94 g of soup, mixed and then 1 ml of a diluted inoculum suspension (cells or spores as appropriate) was added to give a test inoculum level of 10^3 cfu/g. The soup mixture was shaken vigorously to ensure homogeneous distribution of the APP and micro-organisms. The tests were tested by viable count and then incubated at 8° C. and tested on a twice-weekly basis.
(§4) For TCS010521/8 (incubated at 8° C.), samples were prepared in 27.8 g quantities. 1.5 g of an APP stock solution was added, and the tests inoculated with 0.3 ml of a suitably diluted cell or spore suspension to give a final inoculum of ca. 10^3 cfu/g. APP was tested at 0, 500 and 1000 ppm, and batch number APP20010213 (at 169 mg/ml) was used. The tests were sampled by viable count and then incubated at 8° C. and tested on a twice-weekly basis.

In the next experiment the test system is Salm Typhimurium S29. The experiment is described as follows: Test in cooked sausage meat slurry. It counts as cell-based, Salmonella Typhimurium. The conditions noted are these: for Total inhibition for: cooked sausage meat slurry at 8° C., pH 6.2, TSM010605. An excerpt:
500 g of bologna sausage meat mixture was mixed with 500 g Brain Heart Infusion broth (BHIB) to make a homogeneous slurry. The bologna sausage meat mix comprised (g per kg): lean beef 320; lean pork 202; lard 250; water 40; glucose 5; starch 155; spice mix 3.75; sodium glutamate 0.5; sodium erythorbate 0.545; sodium di-phosphate 3; NaCl 20; sodium nitrite 0.15. 200 g samples of the meat slurry were autoclaved. While the meat was still warm it was re-mixed thoroughly. When the meat had cooled it was inoculated with 2 ml of 10^5 cfu/ml spore or cell suspension, and re-mixed again. Each inoculated meat sample was divided into 3×50 g samples, and 1 ml of either SDW, 2.5% or 5% APP solution (batch number APP 20010215) was added to prepare meat samples containing 0, 500 and 1000 ppm APP. The meat slurry was again shaken thoroughly to ensure even mixing, an initial viable count was taken and the samples incubated at 8° C. Samples were taken at twice-weekly intervals. The pH of the sausage meat slurry was 6.2.

Experiment [1] concerns Lb. sake A10. The experiment is described as follows: Test in cooked minced beef slurry. It counts as cell-based, Lactobacillus sake. As for the experimental part: 1 kg of minced beef, purchased from the local butcher, was mixed with 1 litre of BHI. 200 g portion of this meat slurry was autoclaved. When the meat had cooled, the pH was recorded (pH 6.24), and each pot was inoculated with 2.0 ml of 10^5 spores or cells and the meat re-mixed thoroughly. Each inoculated 200 g pot was distributed as 3×50 g portions. To each pot 1 ml of SDW, 5% or 10% APP (Batch No. APP20010215) was added, and the meat was again mixed thoroughly. An initial viable count was performed, the meat was incubated at 8° C. and sampled twice weekly. The pH of the cooked minced beef slurry was 6.24.

The test system of experiment [2] is Lb. sake A10. The experiment is described as follows: Bioscreen growth inhibition test. The format is cell-based, Lactobacillus sake. The conditions noted are these: for APP level causing significant inhibition / APP level causing total inhibition: BS010411, 24 h at 30° C. As for the experimental part:
For broth cultures and Bioscreen testing most bacteria were grown in Brain Heart Infusion (BHI, Oxoid, pH 7.4). Lactobacillus sake A10 was grown in de Man, Rogosa, Sharpe medium ([…], Oxoid). Yeasts were grown in Sabouraud Liquid medium (SLM, Oxoid). Most bacteria were cultured at 30° C. Lactic acid bacteria were grown on solid medium in enriched CO2 atmosphere. Clostridium species were grown in Reinforced Clostridial Medium (RCM) at 37° C. anaerobically. Brochothrix thermosphacta fungi and yeasts were grown at 25° C. Fungi were cultured on Malt Extract Agar (MEA, Oxoid).
An automated Microbiology Reader Bioscreen C was used to measure growth curves of the strains in the presence and absence of APP. The Bioscreen C measures the development of turbidity (i.e. growth) kinetically by vertical photometry in 200 wells of a honeycomb microtitre plate, simultaneously. The system consists of a Bioscreen C analyser, which is an incubator and measurement unit, integrated with a PC, software (BioLink v 5.30), printer and a ‘Honeycomb 2’ cuvette multiwell plate. Growth curve data can be analysed within the BioLink software or exported to programs such as Excel.
Broth culture media were dispensed in 270 μl volumes into the wells as directed. Serial dilutions of a filter-sterilised APP stock solution were then dispensed into the same wells, as appropriate. The wells were inoculated with 30 μl of an appropriately diluted overnight broth culture or spore suspension, to give a final inoculum level of […]. The tests were incubated in the Bioscreen C for either 24 h at 30° C., or 72 h at 25° C. (depending on the micro-organism under investigation) with readings taken every 20 minutes after the trays were shaken. After the incubation period was complete the data were exported to Excel for analysis.

In a further experiment the test system is L monocytogenes S23. In words: Chicken soup trial at 8° C. It counts as cell-based, Listeria monocytogenes. Conditions: chicken soup at 8° C., TCSM010521, APP215.
Excerpt: as §1, §2, §3, §4

Another experiment has as its system Ps. fluorescens. In words: Chicken soup at 8° C. (summary). It counts as cell-based, Pseudomonas fluorescens. Conditions: Chicken soup at 8° C. pH 5.8.
Excerpt: as §1, §2, §3
For TCS010412/8 (which was incubated at 8° C.), APP batch number APP20010213 (concentration 169 mg APP/ml) was used to prepare tests containing 0, 2000 or 4000 ppm APP. […]
For TCS010521/8 (incubated at 8° C.), samples were prepared in 27.8 g quantities. […]

Where [3] appears, read: 2000 ppm, TCS010412, APP20010213.
[4] abbreviates: 4000 ppm, TCS010412, APP20010213.

Take `O=C1CC(CO)OC=C1O` (stereo not drawn) [APP, Ascopyrone P]: the Effect on growth result in the experiment with L. monocytogenes 272 (500 ppm, TCSM010521, APP215) is given as “No effect with 500 ppm”; in the experiment with L. monocytogenes 272 (1000 ppm, TCSM010521, APP215), “No total inhibition”; with Lb. sake A10 [1] (2000 ppm, minced beef slurry at 8° C., pH 6.24, TCM010619), “No effect with 2000 ppm”; in the experiment on L monocytogenes S23 (1000 ppm) it was “No total inhibition by 1000 ppm”. In addition, the “Effect on growth rate” value was “slight reduction” with L. monocytogenes 272 (1000 ppm, TCSM010521, APP215); “Slight reduction of growth rate with 500 and 1000 ppm” in the experiment with L monocytogenes S23 (500 ppm); “Slight reduction of growth rate with 500 and 1000 ppm” with L monocytogenes S23 (1000 ppm). Also, in the experiment on L. monocytogenes 272 (setting [3]), the Counts reach result is on record as “Counts reach <105 with 2000 ppm”. Besides, the values for the Counts undetectable after result in the experiment with L. monocytogenes 272 (setting [3]) and in the experiment with L. monocytogenes 272 (setting [4]) were “Counts undetectable after ca 50 days at 2000 ppm” and “Counts undetectable after 20 days at 4000 ppm”, respectively. For the same molecule, the “Total inhibition for” value in the experiment on L. monocytogenes 272 (setting [4]) is listed as “Total inhibition by 4000 ppm for >60 days”; in the experiment on Salm Typhimurium S29 (500 ppm), “Total inhibition by 500 for 25 d”; with Salm Typhimurium S29 (1000 ppm), “Total inhibition by 1000 ppm for >38 d”. The “Total inhibition (effect on growth of target organism by APP)” value in the experiment with Salm Typhimurium S29 (Cooked sausage meat slurry at 8° C. pH 6.2, (1000)) was “S. Typhimurium”. Moreover, the “No inhibition (effect on growth of target organism by 2000 ppm APP)” value with Lb. sake A10 [1] (Cooked minced beef slurry at 8° C. pH 6.24) is “Lb. sake”. For the same molecule, the “APP level causing significant inhibition” value in the experiment on Lb. sake A10 [2] (APP20010213) and in the experiment with Lb. sake A10 [2] (APP20010215) was 250 ppm in each case. Moreover, the “APP level causing total inhibition” value with Lb. sake A10 [2] (APP20010213) and in the experiment with Lb. sake A10 [2] (APP20010215) was 500 ppm throughout. For the same molecule, the “Total inhibition (effect on growth of target organism by 2000 ppm APP)” value in the experiment on Lb. sake A10 [2] (Lab media at optimum temperature) is “Lb. sake”; in the experiment with Ps. fluorescens, “Ps. fluorescens”.

The values are drawn from patent publication US20030203963A1, “Antimicrobial agent” (priority 2001, published 2003).
